Several values for one entry are separate records, joined by “and”; a condition that tells them apart may be missing. Equal values may be shown once.
What was measured:
Type in all cases: physicochemical
[1] = Blend uniformity (individual capsule assay); conditions: HPLC, Mean ± RSD
Procedure: To assess blend uniformity, capsules from each blend were opened and rinsed with methanol. The solution was sonicated for 5 minutes at room temperature, centrifuged at 3000 rpm for 15 minutes then assayed using a UV-VIS spectrophotometer at a wavelength of 346 nm. […]
To assess blend uniformity, the blend was sampled randomly from the glass vial. The drugs were extracted analogous to that described in section Blend Uniformity for Example 1. However, the content of montelukast acid and mometasone furoate were analyzed by High Performance Liquid Chromatography (HPLC) employing a phenyl column with a controlled temperature of 50° C., a mixture of water containing 0.2% trifluoroacetic acid (TFA) and acetonitrile containing 0.2% TFA (53:47) as the mobile phase at a flow rate 2 ml/min and UV-detection at 248 nm.
The blend uniformity was assessed in a manner analogous to that described in the Blend Uniformity section in Example 4, except the content of montelukast acid and ciclesonide were analyzed by High Performance Liquid Chromatography (HPLC) employing a phenyl column with a controlled temperature of 50° C., a mixture of water containing 0.2% trifluoroacetic acid (TFA) and acetonitrile containing 0.2% TFA (40:60) at a flow rate 2 ml/min and UV-detection at 248 nm.

[2] = Dose uniformity, Dosage Unit Sampling Apparatus (DUSA), USP <601>; conditions: Spinhaler; for Total recovered / amount in Device + Capsule: listed as MOM; for amount in Device + Capsule: nominal 1000 μg MON, 400 μg MOM
Procedure: Dose uniformity was determined using Apparatus B (Dosage Unit Sampling Apparatus—DUSA) at a flow rate of 100 L/min (test described in United States Pharmacopoeia (USP) 27 Chapter <601>). The USP recommends selecting a flow rate that creates a pressure drop of 4 kPa across the inhaler. With the Spinhaler, a 4 kPa pressure drop could not be achieved even at the maximum flow rate of 100 L/min. Based on the recommendations of Byron, et al., a flow rate of 100 L/min was selected since the Spinhaler is a low resistance device. See Michael Hindle and Peter R. Byron, “Dose emissions from marketed dry powder inhalers”, International Journal of Pharmaceutics 116 (1995) 169-177. The test was run for 2.4 seconds in order to pull 4 L of air. After a shot had been delivered, all pieces of the DUSA including the mouthpiece adapter were rinsed with solvent. To determine the amount of drug retained in the inhaler, all pieces of the inhaler were rinsed with solvent including the interior of the capsule. The samples were then assayed using the UV-Vis spectrophotometer.
Shot weight was obtained by measuring the weight loss due to the actuation of the device. The device was tared, a “shot” was wasted in the DUSA and the device was re-weighed to obtain the delivered shot weight. Dose and shot weight were deemed acceptable if they were within 75% to 125% of the theoretical values (USP <601>).
(§1) Dose Uniformity (DU) was performed according to USP Chapter <601> by using DUSA Apparatus B with the Spinhaler® device which is analogous to that described in section Dose Uniformity for Example 1. However, the HPLC was used to analyze the content of the drugs as described in the Blend Uniformity in this example.
as §1, with “Uniformity” for “Uniformity (DU)”, “device and in a manner” for “device which is”, “Uniformity in” for “Uniformity for”, “Example 4, except” for “Example 1. However,”

[3] = Aerodynamic particle size distribution, Andersen cascade impaction (ACI); conditions: Spinhaler; for MMAD: cutoff diameter based on airflow rate of 28.3 L/min; for amount in ACI: including mouthpiece adapter
Description: The Andersen cascade impaction (ACI) (Apparatus 3) was the device used to determine the aerodynamic size distribution. The impaction provided in vitro measurements of the fraction of the aerosol that has the potential to reach the alveolar region of the lung. This value is represented by the portion of particles detected below plate 2. The impaction was operated at the flow rate and test time according to the method described in USP <601>. Because the Spinhaler® is a low resistance device, it is difficult to achieve a pressure drop of 4 kPa, an adjustment of the air flow rate at the intake of the flow control was performed, as discussed above. Each impaction plate was coated with silicone grease (316 Dow Corning) to prevent particles from bouncing off the plates and returning to the air stream. All stages were used since the test flow rate was less than 60 L/min. All pieces of the impaction including the inhaler and capsule were rinsed with solvent, diluted to suitable volumes, sonicated, centrifuged and assayed using the UV-VIS spectrophotometer. The respirable portion was quantified by the in vitro fine particle fraction and fine particle mass. Dose uniformity and cascade impaction tests were carried out at controlled temperature (20-25° C.) and humidity (50% RH). […]
Aerodynamic size distribution was performed according to USP Chapter <601> by using ACI Apparatus 3 with the Spinhaler® device analogous to that described in section Aerodynamic Particle Size Distribution for Example 1. However, the HPLC was used to analyze the content of the drugs as described in the Blend Uniformity in this example.
Aerodynamic size distribution was performed according to USP Chapter <601> by using ACI Apparatus 3 with the Spinhaler® device in a manner analogous to that described in section Aerodynamic Particle Size Distribution in Example 4. The content of the drugs were analyzed as described in the Blend Uniformity in this example.

[4] = Particle size of unmilled and jet milled API
[5] = Moisture and light sensitivity
[6] = Example 5 blend, listed as ciclesonide
[7] = Milled API, Microtrac data, after sonication for 60 seconds
[8] = Unmilled API, optical microscopy
[9] = Example 4 blend, flow 61.5 L/min for 3.9 sec
[10] = Example 4 blend, flow 62.3 L/min for 3.9 sec
[11] = Example 4 blend, flow 62.8 L/min for 3.8 sec
[12] = Example 4 blend, listed as mometasone furoate

In the case of `CC(C)C(=O)OCC(=O)[C@@]12O[C@H](C3CCCCC3)O[C@@H]1C[C@H]1[C@@H]3CCC4=CC(=O)C=C[C@]4(C)[C@H]3[C@@H](O)C[C@@]12C` [Ciclesonide, ciclesonide], the “Amount Recovered (μg/Capsule)” value ([1]; Example 5 blend (montelukast acid 4%, ciclesonide 0.64%)) is reported as 150.9 µg and 146.7 µg and 157.6 µg, the “Amount Recovered (μg/Capsule)” value ([1]; Example 5 blend (montelukast acid 4%, ciclesonide 0.64%), mean of three capsules) is reported as 151.1 ± 3.3 µg and the “Amount Recovered, %” value ([1]; Example 5 blend) is reported as 93.3% and 93.7% and 92.5%. For the same molecule, the “Amount Recovered, %” value ([1]; Example 5 blend, mean of three capsules) was 93.2 ± 0.6%, the “DU based on nominal dose, % (Device + Capsule)” value ([2]; Example 5 blend) was 35.2% and the “DU based on nominal dose, % (printed in Adapter + Filter column)” value ([2]; Example 5 blend) was 61.7%. For the same molecule, the “DU based on total recovered, % (Device + Capsule)” value ([2]; Example 5 blend) was 36.3%, the “DU based on total recovered, % (printed in Adapter + Filter column)” value ([2]; Example 5 blend) was 63.7% and the FPD ([3]; Example 5 blend) was 33.6 µg and 31.1 µg and 41.4 µg. The FPF ([3]; Example 5 blend) was 30.6% and 29.1% and 33.9%, the GSD ([3]; Example 5 blend) was 1.7 and 1.5 and the Total recovered ([3]; Example 5 blend) was 177 µg and 160 µg and 178 µg. For the same molecule, the amount in inhaler ([3]; Example 5 blend) was 67 µg and 53 µg and 56 µg, the MMAD ([3]; Example 5 blend) was 3.6 μm and 3.8 μm and the MMAD [3, 6] was 3.7 μm. The MMAD ([3]; Example 5 blend, mean) was 3.7 μm, the “amount in ACI” value ([3]; Example 5 blend) was 110 µg and 107 µg and 122 µg and the “amount in ACI” value ([3]; Example 5 blend, mean) was 113 µg. The FPF [3, 6] was 31%, the FPD ([3]; Example 5 blend, mean) was 35.5 µg and the FPF ([3]; Example 5 blend, mean) was 31.2%. For the same molecule, the GSD ([3]; Example 5 blend, mean) was 1.6, the Total recovered ([3]; Example 5 blend, mean) was 172 µg and the amount in inhaler ([3]; Example 5 blend, mean) was 59 µg.
For `O=C(NC1CC1)c1cn(-c2cccc(C#Cc3ccc[n+]([O-])c3)c2)c2ncccc2c1=O` [Compound X, N-cyclopropyl-1-[3-(1-oxido-3-pyridinylethynyl)phenyl]-1,4-dihydro[1,8]-naphthyridin-4-one-3-carboxamide], the “Particle size, 95%” value ([4]; Milled API, Aerosizer data) was 7.832 microns, the “Particle size, Mean” value ([4]; Milled API, Aerosizer data) was 2.832 microns and the “Particle size, 95%” value [4, 7] was 4.577 microns. For the same molecule, the “Particle size, Mean” value [4, 7] was 2.794 microns, the “Particle size, 95%” value [4, 8] was 37 microns and the “Particle size, Mean” value [4, 8] was 11 microns. The “moisture and light sensitivity” value [5] was “moisture sensitive and photosensitive”.
With `C[C@@H]1C[C@H]2[C@@H]3CCC4=CC(=O)C=C[C@]4(C)[C@@]3(Cl)[C@@H](O)C[C@]2(C)[C@@]1(OC(=O)c1ccco1)C(=O)CCl` [Mometasone Furoate, mometasone furoate] the “Amount Recovered (μg/Capsule)” value ([1]; Example 4 blend (montelukast acid 4%, mometasone furoate 1.6%)) was 386.8 µg and 371.6 µg and 389.5 µg, the “Amount Recovered (μg/Capsule)” value ([1]; Example 4 blend (montelukast acid 4%, mometasone furoate 1.6%), mean) was 382.6 ± 2.6 µg and the “Amount Recovered, %” value ([1]; Example 4 blend) was 93.9% and 93.5% and 95.8%. For the same molecule, the “Amount Recovered, %” value ([1]; Example 4 blend, mean) was 94.4 ± 1.4%, the “DU based on nominal dose, % (Device + Capsule)” value ([2]; Example 4 blend) was 44.5% and the “DU based on nominal dose, % (printed in Adapter + Filter column)” value ([2]; Example 4 blend) was 55.5%. For the same molecule, the “DU based on total recovered, % (Device + Capsule)” value ([2]; Example 4 blend) was 44.5%, the “DU based on total recovered, % (printed in Adapter + Filter column)” value ([2]; Example 4 blend) was 55.5% and the “Total recovered” value [2, 9] was 397.04 µg and 394.77 µg and 399.78 µg. For the same molecule, the “Total recovered” value [2, 10] was 408.74 µg and 407.23 µg, the “Total recovered” value [2, 11] was 394.15 µg and 396.73 µg and the “amount in Device + Capsule” value [2, 9] was 179.94 µg and 178.36 µg and 177.83 µg. The “amount in Device + Capsule” value [2, 10] was 165.97 µg and 165.37 µg, the “amount in Device + Capsule” value [2, 11] was 187.90 µg and 189.44 µg and the FPD ([3]; Example 4 blend) was 43.5 µg and 53.9 µg and 41.8 µg. The FPF ([3]; Example 4 blend) was 21.0% and 22.7% and 22.1%, the GSD ([3]; Example 4 blend) was 1.5 and the Total recovered ([3]; Example 4 blend) was 404 µg and 402 µg and 395 µg. The amount in inhaler ([3]; Example 4 blend) was 198 µg and 165 µg and 206 µg, the MMAD ([3]; Example 4 blend) was 3.9 μm and 4.1 μm and the MMAD [3, 12] was 4.0 μm. For the same molecule, the MMAD ([3]; Example 4 blend, mean) was 4.0 μm, the “amount in ACI” value ([3]; Example 4 blend) was 207 µg and 237 µg and 189 µg and the “amount in ACI” value ([3]; Example 4 blend, mean) was 211 µg. It also gave an FPF [3, 12] of 22%, an FPD ([3]; Example 4 blend, mean) of 46.4 µg and an FPF ([3]; Example 4 blend, mean) of 21.9%. For the same molecule, the GSD ([3]; Example 4 blend, mean) was 1.4, the Total recovered ([3]; Example 4 blend, mean) was 400 µg and the amount in inhaler ([3]; Example 4 blend, mean) was 189 µg.

Reference: patent US20100210611A1, “COMBINATION THERAPY” (priority 2007, published 2010)
